≈ marks a conversion by molar mass, not a printed value. Where “and” joins values, the source holds several entries; their conditions need not be identical. Identical values can stand only once.
What was measured:
[1] = Solubility in Chloroform buffer at pH 7.4; assay type: physicochemical
[2] = molecular target: T1, Carbonic anhydrase 4 (Bos taurus, UniProt Q95323)
T1 sequence (Q95323 whole entry): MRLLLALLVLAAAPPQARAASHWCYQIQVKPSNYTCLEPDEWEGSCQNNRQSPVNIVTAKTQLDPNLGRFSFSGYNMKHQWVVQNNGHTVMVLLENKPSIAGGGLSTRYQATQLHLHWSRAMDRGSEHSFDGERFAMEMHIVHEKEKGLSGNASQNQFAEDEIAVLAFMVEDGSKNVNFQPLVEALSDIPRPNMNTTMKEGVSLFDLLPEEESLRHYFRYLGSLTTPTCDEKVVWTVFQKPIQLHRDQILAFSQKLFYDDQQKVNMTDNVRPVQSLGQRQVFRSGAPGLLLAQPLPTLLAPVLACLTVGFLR
Description: Inhibitory activity against bovine carbonic anhydrase IV

[3] = not given; remark: listed apart in the source
[4] = octanol/water
[5] = molecular target: Carbonic anhydrase 1 (Homo sapiens, UniProt P00915)
Chain of Carbonic anhydrase 1 (P00915 whole entry): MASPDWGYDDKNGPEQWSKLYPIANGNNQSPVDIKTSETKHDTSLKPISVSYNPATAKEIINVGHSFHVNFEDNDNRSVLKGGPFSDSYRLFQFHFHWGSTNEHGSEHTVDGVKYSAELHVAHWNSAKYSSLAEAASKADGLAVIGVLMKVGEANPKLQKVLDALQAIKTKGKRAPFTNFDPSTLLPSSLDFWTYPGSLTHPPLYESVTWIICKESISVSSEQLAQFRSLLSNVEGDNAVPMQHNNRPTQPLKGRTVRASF
Description: Inhibitory activity against Human carbonic anhydrase I

Compound | Ki [2] | Ki [5] [nM] | further results
NS(=O)(=O)c1ccc(NC(=O)CN(CCN(CCN(CC(=O)O)CC(=O)Nc2ccc(S(N)(=O)=O)cc2)CC(=O)O)CC(=O)O)cc1 | 156 nM |  | solubility [1]: 35 mM (≈ 24.6 mg/mL); Kin x10e3: 4.5 hr-1; Kin x10e3 [3]: 3.6 hr-1; logD [4]: 1.456
Cn1nc(S(N)(=O)=O)s/c1=N/C(=O)CN(CCN(CC(=O)O)CC(=O)/N=c1/sc(S(N)(=O)=O)nn1C)CC(=O)O | 17 nM |  | solubility [1]: 41 mM (≈ 26.4 mg/mL); Kin x10e3: 5.5 hr-1; Kin x10e3 [3]: 3.1 hr-1; logD [4]: 1.333
NS(=O)(=O)c1ccc(CCNC(=O)CN(CCOCCOCCN(CC(=O)O)CC(=O)NCCc2ccc(S(N)(=O)=O)cc2)CC(=O)O)cc1 | 20 nM | 160 | 
NS(=O)(=O)c1ccc(NC(=O)CNCC(=O)O)cc1 | 450 nM | 21300 | 
NS(=O)(=O)c1cc(S(N)(=O)=O)c(NC(=O)CN(CCN(CC(=O)O)CC(=O)O)CC(=O)O)cc1Cl | 105 nM | 210 | 
NS(=O)(=O)c1ccc(NNC(=O)CNCC(=O)O)cc1 | 980 nM | 32700 | 
NS(=O)(=O)c1ccc(COC(=O)CN(CCN(CC(=O)O)c2ccccc2O)c2ccccc2O)cc1 | 320 nM | 945 | 
NS(=O)(=O)c1ccc(NC(=O)CN(CC(=O)O)CC(=O)O)c(F)c1 | 136 nM | 1000 | 
NS(=O)(=O)c1nc2ccc(OCCOC(=O)CNCC(=O)O)cc2s1 | 12 nM | 46 | 
NS(=O)(=O)c1ccc(COC(=O)CN(CCN(CC(=O)O)CC(=O)O)CC(=O)O)cc1 | 335 nM | 850 | 
NS(=O)(=O)c1nnc(NC(=O)CCNC(=O)CN(CCOCCOCCN(CC(=O)O)CC(=O)O)CC(=O)O)s1 | 13 nM | 120 | 
NS(=O)(=O)c1ccc(NNC(=O)CNCCNCC(=O)O)cc1 | 950 nM | 21800 | 
NS(=O)(=O)c1ccc(COC(=O)CNCCNCC(=O)O)cc1 | 350 nM | 1020 | 
NS(=O)(=O)c1ccc(NC(=O)CN(CCN(CC(=O)O)CC(=O)O)CC(=O)O)c(Cl)c1 | 69 nM | 700 | 
NS(=O)(=O)c1cc(S(N)(=O)=O)c(NC(=O)CNCCNCC(=O)O)c(Cl)c1Cl | 110 nM | 290 | 
NS(=O)(=O)c1ccc(NNC(=O)CN(CCN(CC(=O)O)c2ccccc2O)c2ccccc2O)cc1 | 840 nM | 21000 | 
NS(=O)(=O)c1cc(S(N)(=O)=O)c(NC(=O)CN(CCN(CC(=O)O)c2ccccc2O)c2ccccc2O)cc1Cl | 123 nM | 240 | 
NS(=O)(=O)c1ccc(NC(=O)CN(CC(=O)O)CC(=O)O)cc1 | 450 nM | 20600 | 
NS(=O)(=O)c1ccc(NC(=O)CN(CC(=O)O)CC(=O)O)c(Br)c1 | 53 nM | 620 | 
NS(=O)(=O)c1nnc(NC(=O)CNCC(=O)O)s1 | 265 nM | 415 | 
NS(=O)(=O)c1cccc(NC(=O)CN(CC(=O)O)CC(=O)O)c1 | 1520 nM | 23000 | 
NS(=O)(=O)c1nc2ccc(NC(=O)CNCCNCC(=O)O)cc2s1 | 12 nM | 56 | 

Compound | Ki [2] | Ki [5] [nM] | further results
NS(=O)(=O)c1ccc(NC(=O)CN(CC(=O)O)CC(=O)O)c(I)c1 | 110 nM | 510 | 
NS(=O)(=O)c1nc2ccc(NC(=O)CN(CCOCCOCCN(CC(=O)O)CC(=O)O)CC(=O)O)cc2s1 | 7 nM | 39 | 
NS(=O)(=O)c1ccc(NC(=O)CN(CCN(CC(=O)O)CC(=O)O)CC(=O)O)c(F)c1 | 40 nM | 360 | 
NS(=O)(=O)c1ccc(CCOC(=O)CN(CCOCCOCCN(CC(=O)O)CC(=O)O)CC(=O)O)cc1 | 155 nM | 430 | 
NS(=O)(=O)c1ccc(CNC(=O)CN(CCOCCOCCN(CC(=O)O)CC(=O)NCc2ccc(S(N)(=O)=O)cc2)CC(=O)O)cc1 [listing 1 of 2 here] | 39 nM | 350 | 
NS(=O)(=O)c1ccccc1NC(=O)CNCC(=O)O | 1240 nM | 27000 | 
NS(=O)(=O)c1ccc(CNC(=O)CN(CCOCCOCCN(CC(=O)O)CC(=O)NCc2ccc(S(N)(=O)=O)cc2)CC(=O)O)cc1 [listing 2 of 2 here] | 16 nM | 35 | 
NS(=O)(=O)c1ccc(CCNC(=O)CN(CCOCCOCCN(CC(=O)O)CC(=O)O)CC(=O)O)cc1 | 32 nM | 290 | 
NS(=O)(=O)c1ccc(NC(=O)CN(CC(=O)O)CC(=O)O)c(Cl)c1 | 150 nM | 960 | 
NS(=O)(=O)c1cc(S(N)(=O)=O)c(NC(=O)CN(CCN(CC(=O)O)c2ccccc2O)c2ccccc2O)c(Cl)c1Cl | 105 nM | 250 | 
NS(=O)(=O)c1nc2ccc(OC(=O)CN(CCN(CCN(CC(=O)O)CC(=O)Oc3ccc4nc(S(N)(=O)=O)sc4c3)CC(=O)O)CC(=O)O)cc2s1 | 4 nM and 5 nM | 16 | 
NS(=O)(=O)c1nc2ccc(OCCOC(=O)CN(CCOCCOCCN(CC(=O)O)CC(=O)O)CC(=O)O)cc2s1 | 6 nM | 30 | 
NS(=O)(=O)c1ccc(NC(=O)CN(CCOCCOCCN(CC(=O)O)CC(=O)Nc2ccc(S(N)(=O)=O)cc2Cl)CC(=O)O)c(Cl)c1 | 22 nM | 150 | 
NS(=O)(=O)c1ccc(CCNC(=O)CN(CCN(CC(=O)O)CC(=O)O)CC(=O)O)cc1 | 75 nM | 650 | 
NS(=O)(=O)c1ccc(NNC(=O)CN(CCOCCOCCN(CC(=O)O)CC(=O)NNc2ccc(S(N)(=O)=O)cc2)CC(=O)O)cc1 | 400 nM | 9500 | 
NS(=O)(=O)c1ccc(CCNC(=O)CNCCNCC(=O)O)cc1 | 250 nM | 1540 | 
NS(=O)(=O)c1ccc(NC(=O)CN(CCOCCOCCN(CC(=O)O)CC(=O)Nc2ccc(S(N)(=O)=O)cc2I)CC(=O)O)c(I)c1 | 20 nM | 76 | 
NS(=O)(=O)c1cc(S(N)(=O)=O)c(NC(=O)CN(CCN(CC(=O)O)CC(=O)Nc2cc(Cl)c(S(N)(=O)=O)cc2S(N)(=O)=O)CC(=O)O)cc1Cl | 69 nM | 72 | 
NS(=O)(=O)c1ccc(CCOC(=O)CN(CCOCCOCCN(CC(=O)O)CC(=O)OCCc2ccc(S(N)(=O)=O)cc2)CC(=O)O)cc1 | 96 nM | 300 | 
NS(=O)(=O)c1cc(S(N)(=O)=O)c(NC(=O)CN(CCOCCOCCN(CC(=O)O)CC(=O)O)CC(=O)O)c(Cl)c1Cl | 35 nM | 50 | 
NS(=O)(=O)c1ccc(NC(=O)CN(CCN(CC(=O)O)CC(=O)O)CC(=O)O)c(Br)c1 | 50 nM | 130 | 
NS(=O)(=O)c1ccc(NC(=O)CN(CCOCCOCCN(CC(=O)O)CC(=O)O)CC(=O)O)c(Cl)c1 | 30 nM | 230 | 

Compound | Ki [2] | Ki [5] [nM] | further results
NS(=O)(=O)c1ccc(COC(=O)CN(CCOCCOCCN(CC(=O)O)CC(=O)OCc2ccc(S(N)(=O)=O)cc2)CC(=O)O)cc1 | 150 nM | 335 | 
NS(=O)(=O)c1nc2ccc(OCCOC(=O)CN(CCN(CC(=O)O)CC(=O)OCCOc3ccc4nc(S(N)(=O)=O)sc4c3)CC(=O)O)cc2s1 | 6 nM | 25 | 
NS(=O)(=O)c1cccc(NC(=O)CNCC(=O)O)c1 | 1500 nM | 23000 | 
NS(=O)(=O)c1nc2ccc(OCCOC(=O)CN(CCN(CC(=O)O)c3ccccc3O)c3ccccc3O)cc2s1 | 7 nM | 41 | 
NS(=O)(=O)c1ccc(CNC(=O)CNCC(=O)O)cc1 | 279 nM | 3600 | 
NS(=O)(=O)c1ccc(COC(=O)CN(CC(=O)O)CC(=O)O)cc1 | 350 nM | 1200 | 
NS(=O)(=O)c1ccccc1NC(=O)CN(CCOCCOCCN(CC(=O)O)CC(=O)O)CC(=O)O | 545 nM | 8900 | 
Cn1nc(S(N)(=O)=O)s/c1=N/C(=O)CN(CCN(CC(=O)O)c1ccccc1O)c1ccccc1O | 57 nM | 250 | 
NS(=O)(=O)c1ccc(NNC(=O)CN(CCOCCOCCN(CC(=O)O)CC(=O)O)CC(=O)O)cc1 | 620 nM | 12500 | 
NS(=O)(=O)c1ccc(NC(=O)CNCCNCC(=O)O)cc1 | 365 nM | 12000 | 
NS(=O)(=O)c1ccccc1NC(=O)CNCCNCC(=O)O | 1020 nM | 20500 | 
NS(=O)(=O)c1ccc(CNC(=O)CN(CCN(CC(=O)O)CC(=O)O)CC(=O)O)cc1 | 83 nM | 900 | 
Cn1nc(S(N)(=O)=O)s/c1=N/C(=O)CN(CCOCCOCCN(CC(=O)O)CC(=O)O)CC(=O)O | 16 nM | 66 | 
NS(=O)(=O)c1ccc(CCOC(=O)CNCCNCC(=O)O)cc1 | 330 nM | 1000 | 
NS(=O)(=O)c1ccc(NC(=O)CNCC(=O)O)c(I)c1 | 114 nM | 515 | 
NS(=O)(=O)c1ccccc1NC(=O)CN(CCN(CC(=O)O)CC(=O)O)CC(=O)O | 800 nM | 9200 | 
NS(=O)(=O)c1ccc(NC(=O)CN(CCN(CC(=O)O)CC(=O)O)CC(=O)O)c(I)c1 | 78 nM | 123 | 
NS(=O)(=O)c1ccc(CNC(=O)CN(CCN(CC(=O)O)c2ccccc2O)c2ccccc2O)cc1 | 135 nM | 1200 | 
NS(=O)(=O)c1cc(S(N)(=O)=O)c(NC(=O)CNCC(=O)O)c(Cl)c1Cl | 107 nM | 405 | 
NS(=O)(=O)c1nnc(NC(=O)CCNC(=O)CNCCNCC(=O)O)s1 | 39 nM | 240 | 
NS(=O)(=O)c1cc(S(N)(=O)=O)c(NC(=O)CN(CCOCCOCCN(CC(=O)O)CC(=O)Nc2c(S(N)(=O)=O)cc(S(N)(=O)=O)c(Cl)c2Cl)CC(=O)O)c(Cl)c1Cl | 21 nM | 49 | 
NS(=O)(=O)c1ccc(NC(=O)CN(CCOCCOCCN(CC(=O)O)CC(=O)O)CC(=O)O)c(I)c1 | 24 nM | 76 | 
